Test results: patent US20170189504A1, “NOVEL PEPTIDES AND COMBINATION OF PEPTIDES FOR USE IN IMMUNOTHERAPY AGAINST VARIOUS CANCERS” (immatics biotechnologies GmbH, priority 2015, published 2017)

These substances were tested on CD8+ T cells (assay: In vitro immunogenicity: T-cell priming with aAPCs loaded with peptide/MHC complexes and anti-CD28 antibody, pMHC multimer readout (Tables 19A, 19B)). Conditions: in vitro immunogenicity, share of positive wells; healthy donors, three stimulation cycles.
Assay type: cell-based, human
Description: In an aspect, the peptides are pre-screened for immunogenicity before being included in the warehouse. By way of example, and not limitation, the immunogenicity of the peptides included in the warehouse is determined by a method comprising in vitro T-cell priming through repeated stimulations of CD8+ T cells from healthy donors with artificial antigen presenting cells loaded with peptide/MHC complexes and anti-CD28 antibody.
In order to obtain information regarding the immunogenicity of the TUMAPs of the present invention, the inventors performed investigations using an in vitro T-cell priming assay based on repeated stimulations of CD8+ T cells with artificial antigen presenting cells (aAPCs) loaded with peptide/MHC complexes and anti-CD28 antibody.
In order to perform in vitro stimulations by artificial antigen presenting cells loaded with peptide-MHC complex (pMHC) and anti-CD28 antibody, the inventors first isolated CD8+ T cells from fresh HLA-A*02 leukapheresis products via positive selection using CD8 microbeads (Miltenyi Biotec, Bergisch-Gladbach, Germany) of healthy donors obtained from the University clinics Mannheim, Germany, after informed consent.
PBMCs and isolated CD8+ lymphocytes were incubated in T-cell medium (TCM) until use consisting of RPMI-Glutamax (Invitrogen, Karlsruhe, Germany) supplemented with 10% heat inactivated human AB serum (PAN-Biotech, Aidenbach, Germany), 100 U/ml Penicillin/100 μg/ml Streptomycin (Cambrex, Cologne, Germany), 1 mM sodium pyruvate (CC Pro, Oberdorla, Germany), 20 μg/ml Gentamycin (Cambrex). 2.5 ng/ml IL7 (PromoCell, Heidelberg, Germany) and 10 U/ml IL-2 (Novartis Pharma, Nurnberg, Germany) were also added to the TCM at this step.
Generation of pMHC/anti-CD28 coated beads, T-cell stimulations and readout was performed in a highly defined in vitro system using four different pMHC molecules per stimulation condition and 8 different pMHC molecules per readout condition.
The purified co-stimulatory mouse IgG2a anti human CD28 Ab 9.3 (Jung et al., 1987) was chemically biotinylated using Sulfo-N-hydroxysuccinimidobiotin as recommended by the manufacturer (Perbio, Bonn, Germany). Beads used were 5.6 μm diameter streptavidin coated polystyrene particles (Bangs Laboratories, Illinois, USA).
pMHC used for positive and negative control stimulations were A*0201/MLA-001 (peptide […] (SEQ ID NO. 303) from modified Melan-A/MART-1) and A*0201/DDX5-001 ([…] from DDX5, SEQ ID NO. 304), respectively.
800.000 beads/200 μl were coated in 96-well plates in the presence of 4×12.5 ng different biotin-pMHC, washed and 600 ng biotin anti-CD28 were added subsequently in a volume of 200 μl. Stimulations were initiated in 96-well plates by co-incubating […] CD8+ T cells with 2×10^5 washed coated beads in 200 μl TCM supplemented with 5 ng/ml IL-12 (PromoCell) for 3 days at 37° C. Half of the medium was then exchanged by fresh TCM supplemented with 80 U/ml IL-2 and incubating was continued for 4 days at 37° C. This stimulation cycle was performed for a total of three times. For the pMHC multimer readout using 8 different pMHC molecules per condition, a two-dimensional combinatorial coding approach was used as previously described (Andersen et al., 2012) with minor modifications encompassing coupling to 5 different fluorochromes. Finally, multimeric analyses were performed by staining the cells with Live/dead near IR dye (Invitrogen, Karlsruhe, Germany), CD8-FITC antibody clone SK1 (BD, Heidelberg, Germany) and fluorescent pMHC multimers. For analysis, a BD LSRII SORP cytometer equipped with appropriate lasers and filters was used. Peptide specific cells were calculated as percentage of total CD8+ cells. Evaluation of multimeric analysis was done using the FlowJo software (Tree Star, Oreg., USA). In vitro priming of specific multimer+ CD8+ lymphocytes was detected by comparing to negative control stimulations.

Substance | Share of positive wells (percent class)
297 (PFLQASPHF; listed as Homo sapiens) [compound 297] | ++ (20%-49% = ++)
295 (YYPGVILGF; listed as Homo sapiens) [compound 295] | ++ (20%-49% = ++)

Each substance was assayed on HLA-A*24 (assay: MHC binding assay, UV-ligand exchange with β2m ELISA, HLA-A*24 (Table 21)). Conditions: binding to HLA-A*24 ranged by peptide exchange yield (UV-ligand exchange, β2m ELISA).
Set-up: species or system human
Description: Candidate peptides for T cell based therapies according to the present invention were further tested for their MHC binding capacity (affinity). The individual peptide-MHC complexes were produced by UV-ligand exchange, where a UV-sensitive peptide is cleaved upon UV-irradiation, and exchanged with the peptide of interest as analyzed. Only peptide candidates that can effectively bind and stabilize the peptide-receptive MHC molecules prevent dissociation of the MHC complexes. To determine the yield of the exchange reaction, an ELISA was performed based on the detection of the light chain ((β2m) of stabilized MHC complexes. The assay was performed as generally described in Rodenko et al. (Rodenko et al., 2006).
96 well MAXISorp plates (NUNC) were coated over night with 2 ug/ml streptavidin in PBS at room temperature, washed 4× and blocked for 1 h at 37° C. in 2% BSA containing blocking buffer. Refolded HLA-A*02:01/MLA-001 monomers served as standards, covering the range of 15-500 ng/ml. Peptide-MHC monomers of the UV-exchange reaction were diluted 100 fold in blocking buffer. Samples were incubated for 1 h at 37° C., washed four times, incubated with 2 ug/ml HRP conjugated anti-β2m for 1 h at 37° C., washed again and detected with TMB solution that is stopped with […]. Absorption was measured at 450 nm. Candidate peptides that show a high exchange yield (preferably higher than 50%, most preferred higher than 75%) are generally preferred for a generation and production of antibodies or fragments thereof, and/or T cell receptors or fragments thereof, as they show sufficient avidity to the MHC molecules and prevent dissociation of the MHC complexes.

Peptide exchange | Substance
++++ (≧75% = ++++) | 267 (KYMVYPQTF; listed as Homo sapiens) [compound 267]
++++ (≧75% = ++++) | 277 (VYQGHTALL; listed as Homo sapiens) [compound 277]
++++ (≧75% = ++++) | 289 (KYPVEWAKF; listed as Homo sapiens) [compound 289]
+++ (50%-75% = +++) | 223 (KYIPYKYVI; listed as Homo sapiens) [compound 223]
+++ (50%-75% = +++) | 183 (VFTSTARAF; listed as Homo sapiens) [compound 183]
++++ (≧75% = ++++) | 272 (QYLQDAYSF; listed as Homo sapiens) [compound 272]
+++ (50%-75% = +++) | 205 (VHIPEVYLI; listed as Homo sapiens) [compound 205]
+++ (50%-75% = +++) | 190 (GFFIFNERF; listed as Homo sapiens) [compound 190]
+++ (50%-75% = +++) | 188 (RYFKGLVF; listed as Homo sapiens) [compound 188]
+++ (50%-75% = +++) | 206 (EYQENFLSF; listed as Homo sapiens) [compound 206]
+++ (50%-75% = +++) | 198 (LYLDKATLI; listed as Homo sapiens) [compound 198]
++++ (≧75% = ++++) | 211 (YYLEVGKTLI; listed as Homo sapiens) [compound 211]
+++ (50%-75% = +++) | 226 (VYRDETGELF; listed as Homo sapiens) [compound 226]
+++ (50%-75% = +++) | 287 (LYITEPKTI; listed as Homo sapiens) [compound 287]
+++ (50%-75% = +++) | 203 (FYSRLLQKF; listed as Homo sapiens) [compound 203]
++++ (≧75% = ++++) | 186 (IFPQFLYQF; listed as Homo sapiens) [compound 186]
++ (20%-49% = ++) | 215 (YFDKVVTL; listed as Homo sapiens) [compound 215]
+++ (50%-75% = +++) | 164 (KFSSFSLFF; listed as Homo sapiens) [compound 164]
++++ (≧75% = ++++) | 278 (RYISDQLFTNF; listed as Homo sapiens) [compound 278]
+++ (50%-75% = +++) | 174 (VYVGGGQIIHL; listed as Homo sapiens) [compound 174]
++++ (≧75% = ++++) | 202 (VYWDSAGAAHF; listed as Homo sapiens) [compound 202]
++++ (≧75% = ++++) | 228 (KYTSWYVAL; listed as Homo sapiens) [compound 228]
++++ (≧75% = ++++) | 271 (LYHDIFSRL; listed as Homo sapiens) [compound 271]
+++ (50%-75% = +++) | 208 (TYTQDFNKF; listed as Homo sapiens) [compound 208]
+++ (50%-75% = +++) | 270 (NYYEVHKELF; listed as Homo sapiens) [compound 270]

Peptide exchange | Substance
+++ (50%-75% = +++) | 224 (QYLENLEKL; listed as Homo sapiens) [compound 224]
+++ (50%-75% = +++) | 180 (IYDDSFIRPVTF; listed as Homo sapiens) [compound 180]
++++ (≧75% = ++++) | 282 (KFVDSTFYL; listed as Homo sapiens) [compound 282]
++++ (≧75% = ++++) | 280 (RYPDNLKHLYL; listed as Homo sapiens) [compound 280]
++++ (≧75% = ++++) | 193 (RFHPTPLLL; listed as Homo sapiens) [compound 193]
++++ (≧75% = ++++) | 192 (SYALLTYMI; listed as Homo sapiens) [compound 192]
+++ (50%-75% = +++) | 225 (YYVYIMNHL; listed as Homo sapiens) [compound 225]
+ (<20% = +) | 194 (EFGSLHLEFL; listed as Homo sapiens) [compound 194]
+++ (50%-75% = +++) | 171 (LFIPSSKLLFL; listed as Homo sapiens) [compound 171]
++++ (≧75% = ++++) | 227 (IFLDYEAGTLSF; listed as Homo sapiens) [compound 227]
+++ (50%-75% = +++) | 219 (EYPLVINTL; listed as Homo sapiens) [compound 219]
++ (20%-49% = ++) | 189 (WYVNGVNYF; listed as Homo sapiens) [compound 189]
++++ (≧75% = ++++) | 184 (VFQNFPLLF; listed as Homo sapiens) [compound 184]
+++ (50%-75% = +++) | 182 (IYQLDTASI; listed as Homo sapiens) [compound 182]
++++ (≧75% = ++++) | 274 (AYLHSHALI; listed as Homo sapiens) [compound 274]
+++ (50%-75% = +++) | 214 (LYLKLWNLI; listed as Homo sapiens) [compound 214]
+++ (50%-75% = +++) | 279 (TYIESASEL; listed as Homo sapiens) [compound 279]
+++ (50%-75% = +++) | 273 (TYIKPISKL; listed as Homo sapiens) [compound 273]
++ (20%-49% = ++) | 170 (VYEDQVGKF; listed as Homo sapiens) [compound 170]
+++ (50%-75% = +++) | 209 (TYKDEGNDYF; listed as Homo sapiens) [compound 209]
+++ (50%-75% = +++) | 191 (VFKASKITF; listed as Homo sapiens) [compound 191]
++++ (≧75% = ++++) | 172 (TYTTVPRVAF; listed as Homo sapiens) [compound 172]
++++ (≧75% = ++++) | 179 (MYDSYWRQF; listed as Homo sapiens) [compound 179]
+++ (50%-75% = +++) | 185 (IYKVGAPTI; listed as Homo sapiens) [compound 185]
